**Q.** Which melting point does the source give for `O=C(Nc1ccc(NC(=S)NCc2ccccc2)cc1)c1ccc(NC(=S)NCc2ccccc2)cc1` here?
**A.** The melting point was 207 °C.

**Q.** Which melting point does the source give for `COC(=O)NNC(=O)CCCl` here?
**A.** The melting point was 129 °C.

**Q.** With `C=C1C(=O)OC2C1CCC(C)=CCCC1(C)OC21` (stereo not given) as the compound, how does the melting point read?
**A.** Its melting point is 112 to 113 °C.

**Q.** For `CCc1oc2ccccc2c1C(=O)NCc1ccc2c(Br)c(OC(Cc3ccccc3)C(=O)OC)ccc2c1` (stereo not given), which melting point is on record?
**A.** Its melting point is 139 to 143 °C.

**Q.** For `C=CCc1c(-c2cc(=O)c3c(O)cc(OCc4ccccc4)cc3o2)ccc(OC)c1O`, which melting point is on record?
**A.** The melting point was 234 °C.

**Q.** For `CCOC(=O)C1=C(C)NC(CN2C(=O)c3ccccc3C2=O)=C(C(=O)OCC)C1c1ccccc1` (stereo not given), which melting point is on record?
**A.** The melting point was 169 to 170 °C.

**Q.** With `CCN(CC)c1ccc(/C=C/c2c(F)cccc2F)cc1` as the compound, how does the melting point read?
**A.** Its melting point is 70 to 71 °C.

**Q.** For `Cc1cc(Br)cnc1CCCCNC1=NS(=O)N=C1NCc1cccnc1` (stereo not given), which melting point is on record?
**A.** The melting point was 179 to 180 °C.

**Q.** Which melting point does the source give for `Cc1cn(-c2cc(NC(=O)c3ccc(C)c(C#Cc4ccc(NC5CC5)nn4)c3)cc(C(F)(F)F)c2)cn1` here?
**A.** Its melting point is 226 to 228 °C.

**Q.** Which melting point does the source give for `CCOC(=O)Nc1ccc(C(c2ccccc2)n2ccnc2)cc1COC1CCCCO1` (stereo not given) here?
**A.** The melting point was 132 °C.

**Q.** For `Cc1ccc(-c2nccc3c(Cl)cccc23)cc1`, which melting point is on record?
**A.** Its melting point is 88.6 to 89.1 °C.

**Q.** For `O=C(OCCN1CCOC1=O)c1ccccc1Nc1ccnc2cc(Cl)ccc12`, which melting point is on record?
**A.** Its melting point is 122 to 124 °C.

**Q.** Which melting point does the source give for `CCCc1nc2c(N)nc3cccnc3c2n1CC1(O)CCCC1` here?
**A.** Its melting point is 184 to 186 °C.

**Q.** For `COC(=O)c1ccc(CC(C)(C)NCC(O)c2cc3ccccc3o2)cc1` (stereo not given), which melting point is on record?
**A.** The melting point was 127 to 129 °C.

**Q.** Which melting point does the source give for `Cc1cc(-c2cc(C(F)(F)F)n3ncc(C(=O)Nc4cccc(S(N)(=O)=O)c4)c3n2)ccc1Cl` here?
**A.** The melting point was 275 °C.

**Q.** For `COC(=O)C(C)(C)OCc1nn(Cc2ccccc2)c2ccccc12`, which melting point is on record?
**A.** The melting point was 66 to 67 °C.

**Q.** With `CC(=O)Nc1cccc(/C=C/C(=O)N2CC(CCl)c3c2cc([N+](=O)[O-])c2ccccc32)c1` (stereo not given) as the compound, how does the melting point read?
**A.** The melting point was 214 to 216 °C.

**Q.** For `CC(=O)Oc1cccc(C(=O)N[C@@H](Cc2ccccc2)[C@H](OC(C)=O)C(=O)O)c1C`, which melting point is on record?
**A.** The melting point was 152 to 154 °C.

**Q.** With `CC1(C)C[C@@H](n2c(=O)c(Cl)nc3ccccc32)c2cc(C#N)ccc2O1` as the compound, how does the melting point read?
**A.** The melting point was 174 to 176 °C.

**Q.** For `CN1CCN(CC/C=C/c2cc3c(Nc4ccc5[nH]ccc5c4)c(C#N)cnc3s2)CC1`, which melting point is on record?
**A.** The melting point was 220 °C.

**Q.** With `COC(=O)c1sc2c(c1N=C1CCCN1C)c1ccccc1c(=O)n2-c1ccccc1C` as the compound, how does the melting point read?
**A.** Its melting point is 209 to 211 °C.

**Q.** With `COc1ccc(C(N)CC(=O)O)cc1OC` (stereo not given) as the compound, how does the melting point read?
**A.** Its melting point is 208 to 210 °C.

**Q.** With `CC1(C)Oc2ccc(C(=O)CCl)cc2S1` as the compound, how does the melting point read?
**A.** The melting point was 84 to 86 °C.

**Q.** For `NC(=O)C[C@H](NC(=O)OCc1ccccc1)C(=O)N[C@@H](Cc1ccccc1)[C@H](O)C(=O)O`, which melting point is on record?
**A.** Its melting point is 225 to 227 °C.

**Q.** Which melting point does the source give for `Cc1cn(-c2cccc(C(=O)CC(=O)Nc3cc(C#Cc4ccc(F)cc4)ccc3NC(=O)OC(C)(C)C)c2)cn1` here?
**A.** Its melting point is 166 °C.

**Q.** With `CC(=O)Nc1c(C(=O)c2cnccn2)[nH]c2cc(Cl)ccc12` as the compound, how does the melting point read?
**A.** The melting point was 269 to 271 °C.

**Q.** Which melting point does the source give for `ClC1(Cl)OC(Cl)(Cl)c2ccccc21` here?
**A.** The melting point was 85 to 86 °C.

**Q.** For `COc1ccc(-c2cnc(-c3ccc(Cl)cc3)nc2-c2ccc(OC)cc2)cc1`, which melting point is on record?
**A.** The melting point was 151 to 153 °C.

**Q.** For `CCCCc1noc(-c2sccc2N)n1`, which melting point is on record?
**A.** Its melting point is 69 to 70 °C.

**Q.** With `O=c1[nH][nH]c(=O)c2c(O)c3c(C(F)(F)F)cccc3nc12` as the compound, how does the melting point read?
**A.** The melting point was 180 to 182 °C.

**Q.** Which melting point does the source give for `CCOC(=O)C(Cc1ccccc1)(Cc1ccc([N+](=O)[O-])cc1)C(=O)OCC` here?
**A.** Its melting point is 70 to 71 °C.

**Q.** For `COc1cn(-c2cccc(C(F)(F)F)c2)nc(-c2ccnn2-c2ccccc2)c1=O`, which melting point is on record?
**A.** The melting point was 139 to 141 °C.

**Q.** Which melting point does the source give for `CC1(C)Cc2cc(O)c3c(c2C(c2ccccc2)=N1)CC(C)(C)O3` here?
**A.** Its melting point is 208 to 210 °C.

**Q.** With `CC(=O)N1CCN(CCc2ccc(-c3cccc(N)n3)cc2)CC1` as the compound, how does the melting point read?
**A.** Its melting point is 201 to 203 °C.

**Q.** Which melting point does the source give for `O=C(O)c1c2c(nc3ccc(F)cc13)-c1ccc(C3CCCCC3)cc1CC2` here?
**A.** The melting point was 118 to 121 °C.

**Q.** With `O=C(Cc1ccccc1F)c1ccc(I)cc1` as the compound, how does the melting point read?
**A.** The melting point was 112 to 114 °C.

**Q.** With `O=C(O)Cc1c(C(=O)c2ccc(Cl)c(F)c2)[nH]c2cc(Cl)ccc12` as the compound, how does the melting point read?
**A.** Its melting point is 179 to 182 °C.

**Q.** Which melting point does the source give for `Cc1ccc(S(=O)(=O)OCCc2nc(-c3cccc(Br)c3)oc2C)cc1` here?
**A.** The melting point was 107 to 109 °C.

**Q.** Which melting point does the source give for `CCCCC(C)c1cc(O)c2c(c1)OC(C)(C)CC2C1=CCN(CCc2ccccc2)CC1` (stereo not given) here?
**A.** The melting point was 141 to 143 °C.

**Q.** Which melting point does the source give for `Cc1nnc(-c2ccc3occ(-c4ccc(S(C)(=O)=O)c(Cl)c4)c3c2)o1` here?
**A.** The melting point was 204 to 205 °C.

**Q.** With `CC(=O)c1cccc(Nc2cc(C)nc(N)n2)c1` as the compound, how does the melting point read?
**A.** Its melting point is 194 to 196 °C.

**Q.** With `Cc1c(-c2ccccc2)n[nH]c1OCN1CCCC1` as the compound, how does the melting point read?
**A.** The melting point was 88 °C.

**Q.** For `c1ccc(N(c2ccccc2)c2ccc(N(c3ccccc3)c3ccccc3)cc2)cc1`, which melting point is on record?
**A.** The melting point was 200 to 202 °C.

**Q.** For `CCN(CC)CCN(CC)C(=O)c1ccccc1Nc1ccnc2c(C(F)(F)F)cccc12`, which melting point is on record?
**A.** Its melting point is 112 to 113 °C.

**Q.** For `O=C1c2cc3nnn(Cc4ccccn4)c(=O)c3cc2OC2CCCN12` (stereo not given), which melting point is on record?
**A.** Its melting point is 184 to 186 °C.

**Q.** With `Cn1nc(-c2cc(Oc3ccccc3)c(C#N)cc2F)c(Cl)c1C(F)(F)F` as the compound, how does the melting point read?
**A.** Its melting point is 123 °C.

**Q.** For `COc1cc(Cc2cnc(N)nc2N)cc(OC)c1-n1cccc1`, which melting point is on record?
**A.** The melting point was 220 °C.

**Q.** Which melting point does the source give for `CC(C)C[C@H](NC(=O)OCc1ccccc1)C(=O)N[C@@H](Cc1ccccc1)C(=O)CN1CCN(C)CC1` here?
**A.** The melting point was 99 to 100 °C.

**Q.** For `O=C1c2ccccc2CCC1CN1CCC(O)(c2ccc(Cl)cc2)CC1` (stereo not given), which melting point is on record?
**A.** The melting point was 227 to 228 °C.

**Q.** For `CCOC(=O)C1Sc2ccccc2C1=O` (stereo not given), which melting point is on record?
**A.** Its melting point is 138 to 140 °C.

From a melting point compilation (Tetko et al.; mined from patent text by program, amines drawn as free bases though some values may be those of a salt)
